Results published in article PMC12951562, “SH2scan: Mapping SH2 Domain-Ligand Binding Selectivity for Inhibitors and Degraders” (Journal of Medicinal Chemistry, 2026).
Non-standard residues stand in square brackets, D forms with d. Residues, ends and D or L forms follow the SMILES beside them. *: point of attachment. pY = N[C@@H](Cc1ccc(OP(=O)(O)O)cc1)C(=O)O; Caffeoyl = O=C(/C=C/c1ccc(O)c(O)c1)*

Legend:
Assay type in all cases: binding
[1] = molecular target: T1, SH2D1A (Homo sapiens, UniProt O60880); assay: biochemical; settings: for remaining activity at 10 µM: read-out: percent of DMSO vehicle control
T1 construct: made in house; host or cells: HEK293 (transient transfection), unpurified extract
T1 sequence (O60880 1-128): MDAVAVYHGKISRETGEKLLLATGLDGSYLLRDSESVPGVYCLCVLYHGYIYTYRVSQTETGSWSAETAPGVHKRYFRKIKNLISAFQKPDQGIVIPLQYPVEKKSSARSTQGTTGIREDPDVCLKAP

[2] = molecular target: T2, STAT5B(N642H) (Homo sapiens, UniProt P51692, N642H); assay: biochemical; settings: for percent of DMSO vehicle control at 10 µM: read-out: percent of DMSO vehicle control
T2 construct: made in house; host or cells: HEK293 (transient transfection), unpurified extract
T2 sequence (P51692 1-787 N642H): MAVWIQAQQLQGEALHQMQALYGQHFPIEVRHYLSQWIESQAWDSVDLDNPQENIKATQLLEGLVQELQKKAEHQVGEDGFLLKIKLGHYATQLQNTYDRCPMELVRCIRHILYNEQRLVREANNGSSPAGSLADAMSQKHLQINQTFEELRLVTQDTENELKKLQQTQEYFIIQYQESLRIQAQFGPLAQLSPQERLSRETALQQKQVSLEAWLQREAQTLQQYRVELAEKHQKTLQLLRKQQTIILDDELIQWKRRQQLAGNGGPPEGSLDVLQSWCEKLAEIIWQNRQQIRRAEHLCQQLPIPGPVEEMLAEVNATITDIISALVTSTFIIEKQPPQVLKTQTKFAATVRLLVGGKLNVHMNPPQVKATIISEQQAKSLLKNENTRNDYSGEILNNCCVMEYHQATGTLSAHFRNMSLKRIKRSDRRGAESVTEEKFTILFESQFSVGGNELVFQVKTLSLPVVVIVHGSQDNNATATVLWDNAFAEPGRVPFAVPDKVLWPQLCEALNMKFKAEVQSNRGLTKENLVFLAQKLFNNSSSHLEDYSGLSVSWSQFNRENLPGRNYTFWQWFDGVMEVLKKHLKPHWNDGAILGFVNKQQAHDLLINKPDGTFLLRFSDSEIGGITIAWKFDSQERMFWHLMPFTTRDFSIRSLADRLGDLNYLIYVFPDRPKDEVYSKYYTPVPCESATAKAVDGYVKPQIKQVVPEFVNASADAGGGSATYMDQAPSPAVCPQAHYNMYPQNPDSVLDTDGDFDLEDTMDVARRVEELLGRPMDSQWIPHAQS

[3] = molecular target: T3, SYK(SH2dom1.dom2.) (Homo sapiens, UniProt P43405); settings: primary screen, 10 μM
T3 construct: the SH2 domains for these targets are expressed in tandem constructs; made in house; host or cells: HEK293 (transient transfection), unpurified extract

[4] = molecular target: T4, CISH (Homo sapiens, UniProt Q9NSE2); assay: biochemical; settings: for remaining activity at 10 µM: read-out: percent of DMSO vehicle control
T4 construct: the DNA-tagged SH2 domain concentrations used in this study were <0.1 nM; made in house; host or cells: HEK293 (transient transfection; unpurified extract)
T4 sequence (Q9NSE2 82-163 limits assumed): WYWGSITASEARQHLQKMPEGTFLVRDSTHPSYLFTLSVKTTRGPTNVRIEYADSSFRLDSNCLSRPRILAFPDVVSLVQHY

[5] = molecular target: T5, STAT3(S614R)-nonphosphorylated (Homo sapiens, UniProt P40763, S614R); assay: biochemical; settings: for percent of DMSO vehicle control at 10 µM: read-out: percent of DMSO vehicle control
T5 construct: made in house; host or cells: HEK293 (transient transfection), unpurified extract, dephosphorylated by endogenous phosphatases

[6] = molecular target: T6, STAT3(D661Y)-nonphosphorylated (Homo sapiens, UniProt P40763, D661Y); assay: biochemical; settings: for percent of DMSO vehicle control at 10 µM: read-out: percent of DMSO vehicle control
T6 construct: made in house; host or cells: HEK293 (transient transfection), unpurified extract, dephosphorylated by endogenous phosphatases

[7] = molecular target: T7, PTPN11(SH2dom.C-term.) (Homo sapiens, UniProt Q06124); assay: biochemical; settings: primary screen, 10 μM
T7 construct: SH2dom.C-term. denotes SH2 domain closest to C-terminus of protein; made in house; host or cells: HEK293 (transient transfection, unpurified extract)
T7 sequence (Q06124 112-216 limits assumed): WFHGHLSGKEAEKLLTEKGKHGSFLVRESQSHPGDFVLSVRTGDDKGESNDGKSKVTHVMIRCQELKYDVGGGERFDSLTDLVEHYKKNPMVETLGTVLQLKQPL

[8] = molecular target: T8, PIK3R1(SH2dom.N-term.) (Homo sapiens, UniProt P27986); assay: biochemical; settings: for remaining activity at 10 µM: read-out: percent of DMSO vehicle control
T8 construct: SH2dom.N-term. denotes SH2 domain closest to N-terminus of protein; made in house; host or cells: HEK293 (transient transfection, unpurified extract)

[9] = molecular target: T9, HSH2D (Homo sapiens, UniProt Q96JZ2); assay: biochemical; settings: for percent of DMSO vehicle control at 10 µM: read-out: percent of DMSO vehicle control
T9 construct: the DNA-tagged SH2 domain concentrations used in this study were <0.1 nM; made in house; host or cells: HEK293 (transient transfection, unpurified extract)
T9 sequence (Q96JZ2 34-125 limits assumed): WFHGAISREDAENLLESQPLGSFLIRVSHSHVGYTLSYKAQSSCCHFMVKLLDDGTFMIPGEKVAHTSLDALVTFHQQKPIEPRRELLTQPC

[10] = molecular target: T10, STAT4 (Homo sapiens, UniProt Q14765); assay: biochemical; settings: for percent of DMSO vehicle control: primary screen, 10 μM
T10 construct: made in house; host or cells: HEK293 (transient transfection), unpurified extract
T10 sequence (Q14765 1-748): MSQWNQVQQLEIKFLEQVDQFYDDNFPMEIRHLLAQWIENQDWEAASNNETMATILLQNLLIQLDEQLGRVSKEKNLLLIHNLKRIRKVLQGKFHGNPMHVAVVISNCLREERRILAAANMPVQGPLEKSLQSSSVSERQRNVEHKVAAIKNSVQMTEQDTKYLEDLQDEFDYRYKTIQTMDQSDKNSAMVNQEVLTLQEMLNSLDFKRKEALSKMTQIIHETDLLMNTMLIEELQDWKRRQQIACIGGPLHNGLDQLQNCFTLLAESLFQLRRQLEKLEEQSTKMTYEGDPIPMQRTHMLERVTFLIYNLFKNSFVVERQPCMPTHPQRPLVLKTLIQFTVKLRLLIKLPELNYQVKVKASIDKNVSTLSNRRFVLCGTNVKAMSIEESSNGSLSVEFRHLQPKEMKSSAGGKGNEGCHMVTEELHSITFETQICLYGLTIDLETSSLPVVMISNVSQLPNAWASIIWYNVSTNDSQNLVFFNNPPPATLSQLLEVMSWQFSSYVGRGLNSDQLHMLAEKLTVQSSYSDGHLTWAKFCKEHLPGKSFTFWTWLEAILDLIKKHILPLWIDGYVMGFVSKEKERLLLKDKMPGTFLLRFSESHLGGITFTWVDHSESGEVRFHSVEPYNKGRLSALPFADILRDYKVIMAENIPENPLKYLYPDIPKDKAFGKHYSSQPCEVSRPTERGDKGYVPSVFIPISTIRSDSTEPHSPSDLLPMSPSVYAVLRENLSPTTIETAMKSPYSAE

[11] = molecular target: T11, BRK (Homo sapiens, UniProt Q13882); assay: biochemical; settings: for remaining activity at 10 µM: read-out: percent of DMSO vehicle control
T11 construct: the DNA-tagged SH2 domain concentrations used in this study were <0.1 nM; made in house; host or cells: HEK293 (transient transfection; unpurified extract)

| SMILES | percent of DMSO vehicle control [3] [%] | percent of DMSO vehicle control [7] [%] | percent of DMSO vehicle control [10] [%] | remaining activity at 10 µM [1] [%] | percent of DMSO vehicle control at 10 µM [2] [%] | remaining activity at 10 µM [4] [%] | percent of DMSO vehicle control at 10 µM [5] [%] | percent of DMSO vehicle control at 10 µM [6] [%] | remaining activity at 10 µM [8] [%] | percent of DMSO vehicle control at 10 µM [9] [%] | remaining activity at 10 µM [11] [%] | further results |
| --- | --- | --- | --- | --- | --- | --- | --- | --- | --- | --- | --- | --- |
| CC[C@H](C)[C@H](NC(=O)[C@H](CCC(=O)O)NC(=O)[C@H](CCC(=O)O)NC(=O)[C@H](Cc1ccc(OP(=O)(O)O)cc1)NC(C)=O)C(=O)N[C@@H](CCC(=O)O)C(N)=O [Ac-pYEEIE-NH2] (Ac-[pY]EEIE-NH2) | 126.1 | 133.6 | 106.6 |  |  |  |  |  |  |  |  | percent of DMSO vehicle control ([1]; primary screen, 10 μM): 93.4%; percent of DMSO vehicle control ([2]; primary screen, 10 μM): 115.5%; percent of DMSO vehicle control ([4]; primary screen, 10 μM): 131.9%; percent of DMSO vehicle control ([5]; primary screen, 10 μM): 96.3±8.9%; percent of DMSO vehicle control ([6]; primary screen, 10 μM): 91.4±3.8%; percent of DMSO vehicle control ([8]; primary screen, 10 μM): 87.7%; percent of DMSO vehicle control ([9]; primary screen, 10 μM): 127.4%; percent of DMSO vehicle control ([11]; primary screen, 10 μM): 101.4% |
| CC(=O)N[C@@H](Cc1ccc(CP(=O)(O)O)cc1)C(=O)NC1(C(=O)N[C@@H](CC(N)=O)C(=O)NCCCc2c(O)ccc3ccccc23)CCCCC1 [CGP78850] | 85.1±0.1 | 127.5±18.4 | 91.4±14.0 | 63.8 ± 17.1 | 107 ± 9.8 | 117 ± 15.1 | 82.4 ± 3.2 | 97.4 ± 6.3 | 109 ± 5.7 | 8.1 ± 6.6 | 117 ± 12.5 | Kd [9]: 1.6 ± 0.35 µM |
| CC[C@H](C)[C@H](NC(=O)[C@H](CCC(=O)O)NC(=O)[C@H](CCC(=O)O)NC(=O)[C@H](Cc1ccc(OP(=O)(O)O)cc1)NC(=O)/C=C/c1ccc(O)c(O)c1)C(=O)N[C@@H](CCC(=O)O)C(=O)O [Caffeic acid-pYEEIE] (Caffeoyl-[pY]EEIE-OH) | 72.6±6.4 | 72.6±1.1 | 8.8±0.4 | 79.8 ± 21.3 | 9.4 ± 1 | 4.9 ± 6.9 | 81.4 ± 6.7 | 108 ± 9.3 | 0.7 ± 0.1 | 80.3 ± 18.6 | 0 | Kd [2]: 2.4 ± 2.3 µM; Kd [4]: 0.43 ± 0.98 µM; Kd [8]: 0.14 ± 0.017 µM; Kd [10]: 4.4 ± 0.37 µM; Kd [11]: 0.024 ± 0.0039 µM |
